In assay [1] the target is T1, S-adenosylmethionine decarboxylase proenzyme (Homo sapiens, UniProt P17707).
T1 sequence (P17707 whole entry): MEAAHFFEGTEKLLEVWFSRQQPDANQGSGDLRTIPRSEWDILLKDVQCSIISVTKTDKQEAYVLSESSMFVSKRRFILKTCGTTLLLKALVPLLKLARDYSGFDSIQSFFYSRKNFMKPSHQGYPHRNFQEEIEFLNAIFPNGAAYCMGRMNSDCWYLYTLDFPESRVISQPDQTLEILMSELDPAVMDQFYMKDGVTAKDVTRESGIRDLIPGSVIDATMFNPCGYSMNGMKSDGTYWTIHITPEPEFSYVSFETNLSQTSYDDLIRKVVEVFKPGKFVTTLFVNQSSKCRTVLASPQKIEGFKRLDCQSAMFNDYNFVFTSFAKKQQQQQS
Briefly: Inhibitory activity against S-adenosyl-L-methionine decarboxylase was determined; NI means No inhibition.

For the next assay, the target named is T2, Ornithine decarboxylase (Rattus norvegicus, UniProt P09057).
T2 sequence (P09057 whole entry): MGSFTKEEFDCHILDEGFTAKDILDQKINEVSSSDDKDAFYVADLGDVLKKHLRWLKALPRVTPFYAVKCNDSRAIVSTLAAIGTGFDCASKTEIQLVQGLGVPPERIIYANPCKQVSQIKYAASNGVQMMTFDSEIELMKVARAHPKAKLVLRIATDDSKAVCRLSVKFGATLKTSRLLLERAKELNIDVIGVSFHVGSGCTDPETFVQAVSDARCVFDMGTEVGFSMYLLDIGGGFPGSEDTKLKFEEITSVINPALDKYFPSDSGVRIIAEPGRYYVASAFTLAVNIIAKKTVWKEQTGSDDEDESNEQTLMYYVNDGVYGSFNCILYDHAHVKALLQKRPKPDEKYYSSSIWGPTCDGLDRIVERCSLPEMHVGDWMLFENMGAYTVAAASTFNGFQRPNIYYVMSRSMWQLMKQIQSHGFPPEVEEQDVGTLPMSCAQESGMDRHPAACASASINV
As to the kind of experiment: Inhibition of Ornithine decarboxylase in rat liver; Not inhibited.

Assay [2] deals with Spermine synthase (Rattus norvegicus). Briefly: Inhibition of Spermidine aminopropyltransferase (SAPT) in rat liver.
For a further assay, the target named is T3, Spermidine synthase (Rattus norvegicus, UniProt Q99MI5).
T3 sequence (Q99MI5 whole entry): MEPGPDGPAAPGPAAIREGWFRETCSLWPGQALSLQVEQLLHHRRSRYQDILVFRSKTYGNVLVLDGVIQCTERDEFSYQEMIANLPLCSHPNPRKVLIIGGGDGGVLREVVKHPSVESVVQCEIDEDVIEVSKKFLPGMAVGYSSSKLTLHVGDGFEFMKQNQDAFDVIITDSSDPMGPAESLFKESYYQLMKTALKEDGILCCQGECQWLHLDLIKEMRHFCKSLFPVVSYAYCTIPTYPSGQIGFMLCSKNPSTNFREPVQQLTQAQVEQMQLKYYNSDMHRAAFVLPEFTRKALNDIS
Briefly: Inhibition of Putrescine aminopropyltransferase (PAPT) in rat liver.

This note sets out measurements from ChEMBL document CHEMBL1128469, “Synthesis and biochemical evaluation of adenosylspermidine, a nucleoside-polyamine adduct inhibitor of spermidine synthase” (J Med Chem, 1995).

A word on the IC50: it is the midpoint of a concentration-inhibition curve. A high value points to weaker potency. In the case of `NCCCCNC(CCN)CC[C@H]1OC(n2cnc3c(N)ncnc32)[C@H](O)[C@@H]1O` (some centres undefined), the IC50 entry in assay [1] is listed as “Not Active”; against Ornithine decarboxylase, “No inhibition”.

In the case of `NCCCNCCCCCC(CCN)SC[C@H]1OC(n2cnc3c(N)ncnc32)[C@H](O)[C@@H]1O` (some centres undefined), the IC50 in assay [2] was 50 nM; against Spermidine synthase, greater than 10000 nM.
